Test results from PubChem BioAssay (NCI).
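Briefly, cells in 96-well plates were exposed to five compound concentrations for 48 h, and endpoints were estimated by linear interpolation. GI50: concentration for 50% inhibition of growth. TGI denotes the concentration required for complete inhibition of growth.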

Assays:
Experiment in all cases: DTP human tumour cell line panel, 48 h
HCT-15 colon = system: HCT-15 colon
RPMI-8226 leukemia = system: RPMI-8226 leukemia
KM12 colon = system: KM12 colon
MOLT-4 leukemia = system: MOLT-4 leukemia
PC-3 prostate = system: PC-3 prostate
IGROV1 ovarian = system: IGROV1 ovarian
NCI-H460 lung = system: NCI-H460 lung
HT29 colon = system: HT29 colon
DU-145 prostate = system: DU-145 prostate
LOX IMVI melanoma = system: LOX IMVI melanoma
SNB-19 CNS = system: SNB-19 CNS
SK-MEL-2 melanoma = system: SK-MEL-2 melanoma
NCI-H226 lung = system: NCI-H226 lung
HL-60(TB) leukemia = system: HL-60(TB) leukemia
MDA-MB-468 breast = system: MDA-MB-468 breast
K-562 leukemia = system: K-562 leukemia
HOP-92 NSCLC = system: HOP-92 NSCLC
SNB-75 CNS = system: SNB-75 CNS
SN12C renal = system: SN12C renal
EKVX NSCLC = system: EKVX NSCLC
ACHN renal = system: ACHN renal
HS 578T breast = system: HS 578T breast
SR leukemia = system: SR leukemia
MCF7 breast = system: MCF7 breast
HCT-116 colon = system: HCT-116 colon
NCI-H522 lung = system: NCI-H522 lung
A549 NSCLC = system: A549 NSCLC
UO-31 renal = system: UO-31 renal
OVCAR-8 ovarian = system: OVCAR-8 ovarian
SF-295 CNS = system: SF-295 CNS
CCRF-CEM leukemia = system: CCRF-CEM leukemia
A498 renal = system: A498 renal
UACC-257 melanoma = system: UACC-257 melanoma
OVCAR-4 ovarian = system: OVCAR-4 ovarian
TK-10 renal = system: TK-10 renal
NCI-H23 lung = system: NCI-H23 lung
786-0 renal = system: 786-0 renal
SW-620 colon = system: SW-620 colon
MALME-3M melanoma = system: MALME-3M melanoma
UACC-62 melanoma = system: UACC-62 melanoma
SK-OV-3 ovarian = system: SK-OV-3 ovarian
CAKI-1 renal = system: CAKI-1 renal
MDA-MB-435 = system: MDA-MB-435
U251 CNS = system: U251 CNS
T-47D breast = system: T-47D breast
SF-268 CNS = system: SF-268 CNS
M14 melanoma = system: M14 melanoma
COLO 205 colon = system: COLO 205 colon
BT-549 breast = system: BT-549 breast
OVCAR-3 ovarian = system: OVCAR-3 ovarian
SK-MEL-5 melanoma = system: SK-MEL-5 melanoma
HOP-62 NSCLC = system: HOP-62 NSCLC
MDA-MB-231 breast = system: MDA-MB-231 breast
HCC-2998 colon = system: HCC-2998 colon
SF-539 CNS = system: SF-539 CNS
NCI/ADR-RES ovarian = system: NCI/ADR-RES ovarian

For `O=C1NC(=O)c2c1c1c3cc(Br)ccc3[nH]c1c1oc3ccc(F)cc3c21`, the GI50 (HCT-15 colon) was 2.93 µM, the TGI (HCT-15 colon) was > 100 µM and the GI50 (RPMI-8226 leukemia) was 3.71 µM. The TGI (RPMI-8226 leukemia) was > 100 µM, the GI50 (KM12 colon) was 2.87 µM and the TGI (KM12 colon) was > 100 µM. The GI50 (MOLT-4 leukemia) was 0.533 µM, the TGI (MOLT-4 leukemia) was > 100 µM and the GI50 (PC-3 prostate) was 1.69 µM. For the same molecule, the TGI (PC-3 prostate) was 4.99 µM, the GI50 (IGROV1 ovarian) was 1.03 µM and the TGI (IGROV1 ovarian) was 3.15 µM. For the same molecule, the GI50 (NCI-H460 lung) was 1.46 µM, the TGI (NCI-H460 lung) was 3.32 µM and the GI50 (HT29 colon) was 3.59 µM. The TGI (HT29 colon) was > 100 µM, the GI50 (DU-145 prostate) was 3.21 µM and the TGI (DU-145 prostate) was > 100 µM. For the same molecule, the GI50 (LOX IMVI melanoma) was 1.43 µM, the TGI (LOX IMVI melanoma) was 2.77 µM and the GI50 (SNB-19 CNS) was 2.17 µM. For the same molecule, the TGI (SNB-19 CNS) was 6.04 µM, the GI50 (SK-MEL-2 melanoma) was 2.21 µM and the TGI (SK-MEL-2 melanoma) was 6.17 µM. The GI50 (NCI-H226 lung) was 1.1 µM, the TGI (NCI-H226 lung) was 2.6 µM and the GI50 (HL-60(TB) leukemia) was > 100 µM. For the same molecule, the TGI (HL-60(TB) leukemia) was > 100 µM, the GI50 (MDA-MB-468 breast) was 1.35 µM and the TGI (MDA-MB-468 breast) was 3.06 µM. The GI50 (K-562 leukemia) was 3.66 µM, the TGI (K-562 leukemia) was > 100 µM and the GI50 (HOP-92 NSCLC) was 1.59 µM. It also gave a TGI (HOP-92 NSCLC) of 4.52 µM, a GI50 (SNB-75 CNS) of 2.09 µM and a TGI (SNB-75 CNS) of 7.99 µM. The GI50 (SN12C renal) was 1.71 µM, the TGI (SN12C renal) was 3.69 µM and the GI50 (EKVX NSCLC) was 3.99 µM. For the same molecule, the TGI (EKVX NSCLC) was > 100 µM, the GI50 (ACHN renal) was 1.97 µM and the TGI (ACHN renal) was 5.3 µM. The GI50 (HS 578T breast) was 1.91 µM, the TGI (HS 578T breast) was 4.66 µM and the GI50 (SR leukemia) was 4.47 µM. The TGI (SR leukemia) was > 100 µM, the GI50 (MCF7 breast) was 0.877 µM and the TGI (MCF7 breast) was 3.32 µM. The GI50 (HCT-116 colon) was 3 µM, the TGI (HCT-116 colon) was > 100 µM and the GI50 (NCI-H522 lung) was 1.42 µM. The TGI (NCI-H522 lung) was 3.31 µM, the GI50 (A549 NSCLC) was 6.84 µM and the TGI (A549 NSCLC) was > 100 µM. For the same molecule, the GI50 (UO-31 renal) was 0.358 µM, the TGI (UO-31 renal) was > 100 µM and the GI50 (OVCAR-8 ovarian) was 1.67 µM. For the same molecule, the TGI (OVCAR-8 ovarian) was 4.77 µM, the GI50 (SF-295 CNS) was 5.95 µM and the TGI (SF-295 CNS) was > 100 µM. For the same molecule, the GI50 (CCRF-CEM leukemia) was 0.2 µM, the TGI (CCRF-CEM leukemia) was > 100 µM and the GI50 (A498 renal) was 2.02 µM. The TGI (A498 renal) was 3.54 µM, the GI50 (UACC-257 melanoma) was 6.09 µM and the TGI (UACC-257 melanoma) was > 100 µM. It also gave a GI50 (OVCAR-4 ovarian) of 1.55 µM, a TGI (OVCAR-4 ovarian) of 3.33 µM and a GI50 (TK-10 renal) of 3.47 µM. For the same molecule, the TGI (TK-10 renal) was > 100 µM, the GI50 (NCI-H23 lung) was 1.75 µM and the TGI (NCI-H23 lung) was 4.06 µM. For the same molecule, the GI50 (786-0 renal) was 3.62 µM, the TGI (786-0 renal) was 21.9 µM and the GI50 (SW-620 colon) was 2.39 µM. For the same molecule, the TGI (SW-620 colon) was > 100 µM, the GI50 (MALME-3M melanoma) was 1.42 µM and the TGI (MALME-3M melanoma) was 4.01 µM. It also gave a GI50 (UACC-62 melanoma) of 1.39 µM, a TGI (UACC-62 melanoma) of 4.88 µM and a GI50 (SK-OV-3 ovarian) of 2.04 µM. For the same molecule, the TGI (SK-OV-3 ovarian) was 5.37 µM, the GI50 (CAKI-1 renal) was 2.25 µM and the TGI (CAKI-1 renal) was > 100 µM. For the same molecule, the GI50 (MDA-MB-435) was 4.24 µM, the TGI (MDA-MB-435) was > 100 µM and the GI50 (U251 CNS) was 1.73 µM. The TGI (U251 CNS) was 3.87 µM, the GI50 (T-47D breast) was 1.24 µM and the TGI (T-47D breast) was 4.51 µM. The GI50 (SF-268 CNS) was 2.61 µM, the TGI (SF-268 CNS) was 7.8 µM and the GI50 (M14 melanoma) was 3.16 µM. The TGI (M14 melanoma) was > 100 µM, the GI50 (COLO 205 colon) was 2.96 µM and the TGI (COLO 205 colon) was > 100 µM. The GI50 (BT-549 breast) was 9.86 µM, the TGI (BT-549 breast) was > 100 µM and the GI50 (OVCAR-3 ovarian) was 2.14 µM. The TGI (OVCAR-3 ovarian) was 5.3 µM, the GI50 (SK-MEL-5 melanoma) was 3.72 µM and the TGI (SK-MEL-5 melanoma) was > 100 µM. The GI50 (HOP-62 NSCLC) was 1.58 µM, the TGI (HOP-62 NSCLC) was 3.52 µM and the GI50 (MDA-MB-231 breast) was 1.57 µM. It also gave a TGI (MDA-MB-231 breast) of 3.58 µM, a GI50 (HCC-2998 colon) of 3.39 µM and a TGI (HCC-2998 colon) of 45.6 µM. It also gave a GI50 (SF-539 CNS) of 1.79 µM, a TGI (SF-539 CNS) of 3.53 µM and a GI50 (NCI/ADR-RES ovarian) of 3.43 µM. For the same molecule, the TGI (NCI/ADR-RES ovarian) was > 100 µM.
